The text below walks through data of article PMC13083723 (Patterns, 2026).

The experiment has as its system Vero-E6 cells. Nature of the experiment: cells. The experiment is classed as cell-based. As to conditions: Chlorocebus sabaeus, Vero C1008, 24 h, read-out: PL_Result.
Consider `Nc1ncnc2c1c(-c1ccc(Cl)cc1)nn2-c1cccc(-c2cnnn2Cc2cccc(-c3ccccc3)c2)c1` [SPE_K88154110], for which the activation at 10 µM is -7.24%. `C=CC(=O)Nc1cc(Nc2nccc(-c3c[nH]c4ccccc34)n2)c(OC)cc1N(C)CCN(C)C` [SPE_K81958169]: the activation at 10 µM is 5.71%. `CC(=O)O[C@H]1CC[C@@]2(C)C(=CC[C@@H]3[C@@H]2CC[C@]2(C)C(c4cccnc4)=CC[C@@H]32)C1` [SPE_K24048528]: the activation at 10 µM is -6.34%. To `COc1ccc(OC)c(C2C(C#N)=C(N)Oc3[nH]nc(-c4ccc5ccccc5c4)c32)c1` (stereo not drawn) [SPE_A67036568] belongs -6.11%. To `Oc1cccc(Nc2ccc(Nc3cccc(O)c3)nn2)c1` [SPE_K38687824] belongs -9.16%; to `Cc1c(CN2CCN(C(=O)[C@H](C)O)CC2)sc2c(N3CCOCC3)nc(-c3cnc(N)nc3)nc12` [SPE_K23228615], -5.95%. To `NC[C@H]1O[C@H](O[C@H]2C(O[C@@H]3O[C@H](CO)[C@@H](O)[C@H]3O)[C@@H](O)[C@H](N)C[C@@H]2N)[C@H](N)[C@@H](O)[C@@H]1O` (stereo partly drawn) [SPE_A03826781] belongs -7.3%. On to `CCOc1cc(N2CCC(O)CC2)ccc1Nc1ncc2c(n1)N(C)c1ccccc1C(=O)N2C` [SPE_K50387473], for which the activation at 10 µM is -6.3%.

Consider `COc1[nH]c2ccc(F)cc2c1C(=O)OCC1CCN(CCNS(C)(=O)=O)CC1` [SPE_K62594868], for which the activation at 10 µM was -2.59%.

Take `O=C(COc1ccc(C(=O)c2ccccc2)cc1)NC1CCN(Cc2ccccc2)CC1` [SPE_K68810443]: the activation at 10 µM is -3.96%.

On to `COc1ccc(/C=C/C(=O)O)cc1` [SPE_K26273521], for which the activation at 10 µM is -9.12%. As for `CC(=O)Nc1ccc(OC[C@](C)(O)C(=O)Nc2ccc([N+](=O)[O-])c(C(F)(F)F)c2)cc1` [SPE_K82164249], the activation at 10 µM was -13.9%. Take `c1ccc(CCCCN2CCC(c3ccccc3)CC2)cc1` [SPE_K78061844]: the activation at 10 µM was found to be 42.6%. In the case of `Clc1ccc(C23CNCC2C3)cc1Cl` (stereo not drawn) [SPE_A68942014] it was -4.9%. Take `CC(C)CCCC(C)[C@H]1CCC2C3CC=C4C[C@@H](O)CC[C@]4(C)C3CC[C@@]21C` (stereo partly drawn) [SPE_A42883684]: the activation at 10 µM is -4.75%. To `CC[C@]1(O)C[C@H]2C[N@](CCc3c([nH]c4ccccc34)[C@@](C(=O)OC)(c3cc4c(cc3OC)N(C)[C@H]3[C@@](O)(C(N)=O)[C@H](O)[C@]5(CC)C=CCN6CC[C@]43[C@@H]65)C2)C1` [SPE_K59753975] belongs 7.07%; to `Nc1ccn(C[C@@H](CO)OCP(=O)(O)O)c(=O)n1` [SPE_K96153583], -12.6%. To `COc1cc(/C=C/C(N)=O)cc(OC)c1OC` [SPE_K24507548] belongs -1.45%; to `COc1c(C)cnc(Cn2cnc3c(Cl)nc(N)nc32)c1C` [SPE_K51967704], -7.08%; to `CC(C)(Sc1cc(C(C)(C)C)c(O)c(C(C)(C)C)c1)Sc1cc(C(C)(C)C)c(O)c(C(C)(C)C)c1` [SPE_K72029282], -0.8%. To `Cc1ccc(=O)n(-c2ccccc2)c1` [SPE_K96862998] belongs 4.03%.

In the case of `O=C(Nc1c(Cl)cncc1Cl)c1ccc(OC(F)F)c(OCC2CC2)c1` [SPE_K03194791], the activation at 10 µM is -2.86%. In the case of `O=C(Nc1cc(Cl)cc(Cl)c1O)c1c(O)c(Cl)cc(Cl)c1Cl` [SPE_K07283971] it was -4.07%; in that of `N#Cc1c(Oc2ccc(F)c(NC(=O)Cc3cccc(C(F)(F)F)c3)c2)ccc2nc(NC(=O)C3CC3)sc12` [SPE_K31866293], 1.45%; in that of `C[C@H]1CO[C@@H]2Cn3cc(C(=O)NCc4ccc(F)cc4F)c(=O)c(O)c3C(=O)N12` [SPE_A95114378], -1.46%. To `Cc1cc2sc(NC(=O)Cc3ccccc3)nc2cc1Cl` [SPE_K47409078] belongs 0.438%; to `Cc1ccc(C(=O)Nc2ccc(CN3CCN(C)CC3)c(C(F)(F)F)c2)cc1C#Cc1cnc2[nH]ncc2c1` [SPE_K35329391], -3.83%; to `CC(=O)Nc1nc2c(Oc3cc(-c4ccc(C(F)(F)F)cc4)ncn3)cccc2s1` [SPE_K34185671], -12.4%.

For `CNCCc1c[nH]cn1` [SPE_K64422603], the activation at 10 µM was -17.3%. Turning to `CC(C)c1ccc(CC(=O)N2CCC[C@@H](c3cccc(OC(C)(C)C(=O)O)c3)C2)cc1` [SPE_K96843359], the activation at 10 µM was -10.8%. On to `CCC[C@H](N[C@@H](C)C(=O)N1[C@H](C(=O)O)C[C@@H]2CCCC[C@@H]21)C(=O)OCC` [SPE_K92731339], for which the activation at 10 µM stood at 4.37%.

`Cc1c(C2CCN(CCc3ccccc3)CC2)noc1-c1ccc(Cl)cc1` [SPE_K13211965]: the activation at 10 µM was 49%.

Turning to `CC(C)(C)C(=O)OCOC(=O)C1N2C(=O)CC2S(=O)(=O)C1(C)C` (stereo not drawn) [SPE_A63431791], the activation at 10 µM is -1.74%.

Take `COc1cc2c(cc1OC)[C@@]13CCN4CC5=CCOC6CC(=O)N2C1[C@H]6[C@H]5C[C@H]43` (stereo partly drawn) [SPE_A41995253]: the activation at 10 µM is 1.19%. For `CC(C(=O)O)c1cccc(Oc2ccccc2)c1` (stereo not drawn) [SPE_A81129465], the activation at 10 µM was found to be 5.17%. In the case of `O=C(Nc1ccc(S(=O)(=O)Nc2ccccc2Cl)c(Cl)c1)c1ccccn1` [SPE_K72687424] it was -10.9%; in that of `O=C(NCCN1CCC2(CC1)C(=O)NCN2c1cccc(F)c1)c1ccc2ccccc2c1` [SPE_K93317811], 113%; in that of `Cc1nc(-c2cn3c(n2)-c2ccc(-c4cnn(C(C)(C)C(N)=O)c4)cc2OCC3)n(C(C)C)n1` [SPE_K44844162], 4.98%. To `CCN(C(=O)c1c(O)c2c(Cl)cccc2n(C)c1=O)c1ccccc1` [SPE_K60918217] belongs -1.53%; to `N[C@H](CSC(c1ccccc1)(c1ccccc1)c1ccccc1)C(=O)O` [SPE_K09774593], -6.1%; to `CN(C)CCOC(c1ccc(Cl)cc1)c1ccccn1` (stereo not drawn) [SPE_A29426959], -7.35%. In the case of `C=CCc1ccc(O)c(-c2ccc(O)c(CC=C)c2)c1` [SPE_K98493452] it was -13.9%; in that of `CN(C)Cc1ccc(-c2nc3cccc4c3n2CCNC4=O)cc1` [SPE_K00615600], 6.53%. Turning to `O=C(Cn1ccnc1[N+](=O)[O-])NCCO` [SPE_K96042922], the activation at 10 µM is -3.79%.

Regarding `COc1cc(C(=S)N2CCOCC2)cc(OC)c1OC` [SPE_K29570907], the activation at 10 µM is -7.35%. As for `Nc1nc(=O)[nH]cc1F` [SPE_K82143716], the activation at 10 µM was -8.79%. To `NC(C(=O)O)c1cc(O)cc(O)c1` (stereo not drawn) [SPE_A20589515] belongs 2.18%; to `COc1ccc(Cl)c(Nc2nc3ccccc3nc2NS(=O)(=O)c2cccc(NC(=O)C(C)(C)N)c2)c1` [SPE_K49456274], -4.27%.

`C[C@@H]1CN(CCCn2c3ccccc3c3ccccc32)C[C@H](C)N1` [SPE_K70490179]: the activation at 10 µM worked out at 109%. As to `Nc1ncnc2c1ncn2C1CCCO1` (stereo not drawn) [SPE_A56987319], the activation at 10 µM is 0.343%. On to `O=C(O)COCCN1CCN(C(c2ccccc2)c2ccc(Cl)cc2)CC1` (stereo not drawn) [SPE_A42571354], for which the activation at 10 µM is -3.1%.
